The source of these data is patent US20240391954A1, “MC4R AGONIST PEPTIDES” (The Regents of the University of Michigan, priority 2021, published 2024).

Like-named read-outs stand apart in the source and are kept apart here. Positions of bridges follow the written chain, without caps; N, C: chain ends. Non-standard residues stand in square brackets, D forms with d. Residues, ends and D or L forms follow the SMILES beside them. dPhe(4-NH2) = Nc1ccc(C[C@@H](N)C(=O)O)cc1; dPhe(4-Br) = N[C@H](Cc1ccc(Br)cc1)C(=O)O; d(αMeF) = C[C@@](N)(Cc1ccccc1)C(=O)O; NMeR = CN[C@@H](CCCNC(=N)N)C(=O)O; Nle = CCCC[C@H](N)C(=O)O

One assay deals with T1, human MC4R (Homo sapiens, UniProt P32245).
T1 construct: host or cells: HEK-293 cells stably expressing the GScAMP22F split-luciferase cAMP sensor and hMC4R, G418 selection
Kind of assay: split-luciferase cAMP sensor assay, agonist mode (measurement window 1), hMC4R. The format is cell-based. The conditions noted are these: for Emax / EC50 / MC4R cAMP % max activation: agonist mode; for Emax: read-out: MC4R cAMP % max activation; for EC50: read-out: MC4R cAMP EC50. The protocol:
(§1) The stable cell lines were grown and maintained in selection media consisting of Dulbecco's modified Eagle media (DMEM) with 4.5 g/l D-glucose, and 4 mM L-glutamine (Thermo Fisher Scientific, Waltham, MA), supplemented with 10% fetal bovine serum, 100 units/ml penicillin, 100 μg/ml streptomycin, 2.5 μg/ml amphotericin B, 200 μg/ml hygromycin B (for positive selection of the GScAMP22f luciferase reporter), and Geneticin™ (G418) 700 μg/ml (for MC3R or MC4R selection). Actual serum concentration during the assay is estimated to be about 1%. Cell line identity is routinely verified by qPCR and MC3R-and MC4R-specific oligonucleotides.
(§2) The assay for the determination of the cAMP response in live cells was described previously. […] Cells were seeded at a density of 20,000 cells per well using 384-well poly-D lysine-coated, clear bottom, and black-wall assay plates (Corning Inc. Corning, NJ). Cells were allowed to attach to the plates for 18 to 24 h after which growth media was removed and 20 μl of 4% D-luciferin (Promega) in CO2 independent, serum-free medium (Thermo Fisher Scientific) was added to each well. […] Intracellular cAMP levels were measured using an FDSS 7000EX Functional Drug Screening System (Hamamatsu Photonics, Hamamatsu, Japan) in the Center for Chemical Genomics at the Life Sciences Institute. This instrument allowed the in-line addition of test-peptides and receptor agonists while simultaneously acquiring the luminescence signal from live cells. […] A submaximal forskolin (20 μM) concentration was also included to serve as a normalization reference to account for cell number variations and differences in assay transducer efficiency between cell lines.
(§3) With this set up it was possible to evaluate the direct effect of the test-peptides on the MC3R and MC4R cell lines during measurement window 1, while the antagonist profile in the presence of EC90 α-MSH was determined on measurement window 2. […] EC50 or IC50 potency values were determined by non-linear regression by fitting the data to a sigmoid four-parameter variable slope model using the GraphPad Prism version 8.4 software package (San Diego CA).

The target of the next assay is T2, human MC3R (Homo sapiens, UniProt P41968).
T2 construct: expressed in transfected cells; host or cells: HEK-293 cells stably expressing the GScAMP22F split-luciferase cAMP sensor (parent reporter line from Promega); MC3R clone generated in-house, G418 selection
Put plainly: split-luciferase cAMP sensor assay, agonist mode (measurement window 1), hMC3R. To be noted: agonist mode; for Emax: read-out: MC3R cAMP % max activation; for EC50: read-out: MC3R cAMP EC50. In kind it is cell-based. The protocol:
as §1, §2, §3

T1 sequence (P32245 whole entry): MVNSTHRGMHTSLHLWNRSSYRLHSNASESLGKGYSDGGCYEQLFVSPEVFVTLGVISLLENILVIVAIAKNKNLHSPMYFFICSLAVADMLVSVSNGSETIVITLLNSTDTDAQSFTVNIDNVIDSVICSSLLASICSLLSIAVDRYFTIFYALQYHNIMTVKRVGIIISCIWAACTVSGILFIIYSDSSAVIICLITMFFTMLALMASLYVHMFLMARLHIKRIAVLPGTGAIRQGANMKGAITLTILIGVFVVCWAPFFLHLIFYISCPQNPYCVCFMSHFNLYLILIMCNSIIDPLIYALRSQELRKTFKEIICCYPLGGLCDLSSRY
T2 sequence (P41968 whole entry): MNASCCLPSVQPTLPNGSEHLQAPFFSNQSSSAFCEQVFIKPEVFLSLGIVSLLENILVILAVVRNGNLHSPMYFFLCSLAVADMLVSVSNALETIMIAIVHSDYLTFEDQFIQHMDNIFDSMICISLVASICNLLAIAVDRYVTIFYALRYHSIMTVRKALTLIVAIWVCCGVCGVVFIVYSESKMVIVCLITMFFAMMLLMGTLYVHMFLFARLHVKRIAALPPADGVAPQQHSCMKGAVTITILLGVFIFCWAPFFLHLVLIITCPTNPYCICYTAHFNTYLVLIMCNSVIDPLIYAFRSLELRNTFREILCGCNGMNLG

Turning to `CC(=O)N[C@@H](CCCNC(=N)N)C(=O)N[C@H]1CSSC[C@@H](C(N)=O)NC(=O)[C@H](Cc2c[nH]c3ccccc23)NC(=O)[C@H](CCCNC(=N)N)NC(=O)[C@H](Cc2ccccc2)NC(=O)[C@H](Cc2c[nH]cn2)NC(=O)[C@@H](C)NC1=O` [CTX-1213, Arg-cyclo(Cys-D-Ala-His-Phe-Arg-Trp-Cys)], the Emax worked out at 104% at human MC4R (% maximal activation) and 97% on human MC3R (% maximal activation).
What is called EC50 is the midpoint of the concentration-response curve. Consider `CCCC[C@H](NC(=O)[C@H](CCCNC(=N)N)NC(C)=O)C(=O)N[C@H]1CSSC[C@@H](C(N)=O)NC(=O)[C@H](Cc2c[nH]c3ccccc23)NC(=O)[C@H](CCCNC(=N)N)NC(=O)[C@@H](Cc2ccc(Br)cc2)NC(=O)[C@H](CCCNC(=N)N)NC1=O` [CTX-1612, Arg-Nle-cyclo(Cys-Arg-D-Phe(4-Br)-Arg-Trp-Cys)] (Ac-R[Nle]CR[dPhe(4-Br)]RWC-NH2; disulfide 3-8 (inferred)), for which, on human MC4R, the “MC4R selectivity vs MC1R” value is given as 0.09 and the “MC4R selectivity vs MC3R” value is 2.27. Besides, at human MC4R (hMC4R stable cell line), the Emax came out at 25% and the EC50 was 2 nM. Moreover, on human MC3R (hMC3R stable cell line), the Emax was 27% and the EC50 turned out to be 4.5 nM.
Turning to `CCCC[C@H](NC(=O)[C@H](CCCNC(=N)N)NC(C)=O)C(=O)N[C@H]1CSSC[C@@H](C(N)=O)NC(=O)[C@H](Cc2c[nH]c3ccccc23)NC(=O)[C@H](CCCNC(=N)N)NC(=O)[C@@H](Cc2ccc(Br)cc2)NC(=O)[C@H](CCCNC(=N)N)NC1=O` [CTX-1230, Arg-Nle-cyclo(Cys-Arg-D-Phe(4-Br)-Arg-Trp-Cys)] (Ac-R[Nle]CR[dPhe(4-Br)]RWC-NH2; disulfide 3-8), on human MC4R, the “MC4R selectivity vs MC1R” value is recorded as 0.18 and the “MC4R selectivity vs MC3R” value is given as 1.95. In addition, on human MC4R (hMC4R stable cell line), the “MC4R cAMP % max activation” value was “(27%)” and the EC50 worked out at 1.4 nM. Further, on human MC3R (hMC3R stable cell line), the “MC3R cAMP % max activation” value is given as “(23%)” and the EC50 was found to be 3.9 nM.
Turning to `CCCC[C@H](NC(=O)[C@H](CCCNC(=N)N)NC(C)=O)C(=O)N[C@H]1CSSC[C@@H](C(N)=O)NC(=O)[C@H](Cc2ccccc2)NC(=O)[C@H](CCCNC(=N)N)NC(=O)[C@@H](Cc2ccc(Br)cc2)NC(=O)[C@H](CCCNC(=N)N)NC1=O` [CTX-1623, Arg-Nle-cyclo(Cys-Arg-D-Phe(4-Br)-Arg-Phe-Cys)] (Ac-R[Nle]CR[dPhe(4-Br)]RFC-NH2; disulfide 3-8), the Emax on human MC4R (% maximal activation) was 73%; at human MC3R (% maximal activation), 62%.
In the case of `CCCC[C@H](NC(=O)[C@H](CCCNC(=N)N)NC(C)=O)C(=O)N[C@H]1CSSC[C@@H](C(N)=O)NC(=O)[C@@H](Cc2c[nH]c3ccccc23)NC(=O)[C@H](CCCNC(=N)N)NC(=O)[C@@H](Cc2ccc(Br)cc2)NC(=O)[C@H](CCCNC(=N)N)NC1=O` [CTX-1232, Arg-Nle-cyclo(Cys-Arg-D-Phe(4-Br)-Arg-D-Trp-Cys)] (Ac-R[Nle]CR[dPhe(4-Br)]R[dW]C-NH2; disulfide 3-8 (inferred)), at human MC4R, the “MC4R selectivity vs MC1R” value amounted to 0.39 and the “MC4R selectivity vs MC3R” value was determined as 2.44. Moreover, at human MC4R (hMC4R stable cell line), the “MC4R cAMP % max activation” value is on record as “(46%)” and the EC50 amounted to 2.4 nM. Moreover, the “MC3R cAMP % max activation” value on human MC3R (hMC3R stable cell line) was “(41%)”.
For the compound `CC(=O)Nc1ccc(C[C@H]2NC(=O)[C@H](CCCNC(=N)N)NC(=O)[C@@H](C)NC(=O)[C@@H](NC(=O)[C@H](CCCNC(=N)N)NC(C)=O)CSSC[C@@H](C(N)=O)NC(=O)[C@@H](Cc3c[nH]c4ccccc34)NC(=O)[C@H](CCCNC(=N)N)NC2=O)cc1` [CTX-1245, Arg-cyclo(Cys-D-Ala-Arg-D-Phe(4-NH-Ac)-Arg-D-Trp-Cys)] (Ac-RC[dA]R[dPhe(4-NH2)](Ac)R[dW]C-NH2; disulfide 2-8), the Emax amounted to 34% at human MC4R (hMC4R stable cell line) and 6.3% at human MC3R (hMC3R stable cell line).
On to `CCCC[C@H](NC(=O)[C@H](CCCNC(=N)N)NC(C)=O)C(=O)N[C@H]1CSSC[C@@H](C(N)=O)NC(=O)[C@@H](Cc2c[nH]c3ccccc23)NC(=O)[C@H](CCCNC(=N)N)NC(=O)[C@@H](Cc2ccc(Br)cc2)NC(=O)[C@H](CCCNC(=N)N)NC1=O` [CTX-1613, Arg-Nle-cyclo(Cys-Arg-D-Phe(4-Br)-Arg-D-Trp-Cys)] (Ac-R[Nle]CR[dPhe(4-Br)]R[dW]C-NH2; disulfide 3-8 (inferred)), for which, on human MC4R, the “MC4R selectivity vs MC1R” value was 0.79 and the “MC4R selectivity vs MC3R” value turned out to be 2.1. On human MC4R (hMC4R stable cell line), the Emax is 32% and the EC50 amounted to 1.9 nM. Besides, at human MC3R (hMC3R stable cell line), the Emax is 35% and the EC50 amounted to 4 nM.
On to `CC(=O)N[C@@H](CCCNC(=N)N)C(=O)N[C@H]1CSSC[C@@H](C(N)=O)NC(=O)[C@@H](Cc2c[nH]c3ccccc23)NC(=O)[C@@H](CCCNC(=N)N)NC(=O)[C@@H](Cc2ccccc2)NC(=O)[C@H](CCCNC(=N)N)NC(=O)[C@@H](C)NC1=O` [CTX-1283, Arg-cyclo(Cys-D-Ala-Arg-D-Phe-D-Arg-D-Trp-Cys)] (Ac-RC[dA]R[dF][dR][dW]C-NH2; disulfide 2-8), for which, on human MC4R, the “MC4R selectivity vs MC1R” value stood at 0.03 and the “MC4R selectivity vs MC3R” value is listed as 0.12. In addition, the Emax at human MC4R (hMC4R stable cell line) amounted to 55%. Further, at human MC3R (hMC3R stable cell line), the Emax turned out to be 7.8%.
With `CC(=O)N[C@@H](CCCNC(=N)N)C(=O)N[C@H]1CSSC[C@@H](C(N)=O)NC(=O)[C@@H](Cc2c[nH]c3ccccc23)NC(=O)[C@H](CCCNC(=N)N)NC(=O)[C@@](C)(Cc2ccccc2)NC(=O)[C@H](CCCNC(=N)N)NC(=O)[C@@H](C)NC1=O` [CTX-1240, Arg-cyclo(Cys-D-Ala-Arg-aMe-D-Phe-Arg-D-Trp-Cys)] (Ac-RC[dA]R[d(αMeF)]R[dW]C-NH2; disulfide 2-8), on human MC4R, the “MC4R selectivity vs MC1R” value worked out at 0.46 and the “MC4R selectivity vs MC3R” value is listed as 0.41. Further, the “MC4R cAMP % max activation” value at human MC4R (hMC4R stable cell line) is reported as “(81%)”. Moreover, on human MC3R (hMC3R stable cell line), the “MC3R cAMP % max activation” value is listed as “(27%)”.
As to `CC(=O)N[C@@H](CCCNC(=N)N)C(=O)N[C@H]1CSSC[C@@H](C(=O)N[C@@H](CCCCN)C(=O)N2CCC[C@H]2C(=O)N[C@H](C(N)=O)C(C)C)NC(=O)[C@@H](Cc2c[nH]c3ccccc23)NC(=O)[C@H](CCCNC(=N)N)NC(=O)[C@@H](Cc2ccc(Br)cc2)NC(=O)[C@H](CCCNC(=N)N)NC(=O)[C@@H](C)NC1=O` [CTX-1216, Arg-cyclo(Cys-D-Ala-Arg-D-Phe(4-Br)-Arg-D-Trp-Cys)-Lys-Pro-Val] (Ac-RC[dA]R[dPhe(4-Br)]R[dW]CKPV-NH2; disulfide 2-8 (inferred)), at human MC4R, the “MC4R selectivity vs MC1R” value was 0.82 and the “MC4R selectivity vs MC3R” value worked out at 1.99. Besides, on human MC4R (hMC4R stable cell line), the Emax is 69% and the EC50 was 1.8 nM. Further, at human MC3R (hMC3R stable cell line), the Emax was determined as 11% and the EC50 is 3.5 nM.
As to `CC(=O)N[C@@H](CCCNC(=N)N)C(=O)N[C@H]1CSSC[C@@H](C(N)=O)NC(=O)[C@@H](Cc2c[nH]c3ccccc23)NC(=O)[C@H](CCCNC(=N)N)NC(=O)[C@@H](Cc2c[nH]c3ccccc23)NC(=O)[C@H](CCCNC(=N)N)NC(=O)[C@@H](C)NC1=O` [CTX-1244, Arg-cyclo(Cys-D-Ala-Arg-D-Trp-Arg-D-Trp-Cys)] (Ac-RC[dA]R[dW]R[dW]C-NH2; disulfide 2-8 (inferred)), at human MC4R, the “MC4R selectivity vs MC1R” value is listed as 0.26 and the “MC4R selectivity vs MC3R” value is on record as 0.11. In addition, at human MC4R (hMC4R stable cell line), the “MC4R cAMP % max activation” value is on record as “(42%)” and the EC50 was found to be 109 nM. Moreover, at human MC3R (hMC3R stable cell line), the “MC3R cAMP % max activation” value is listed as “(10%)” and the EC50 was found to be 13 nM.
In the case of `CC(=O)N[C@@H](CCCNC(=N)N)C(=O)N[C@H]1CSSC[C@@H](C(N)=O)NC(=O)[C@@H](Cc2c[nH]c3ccccc23)NC(=O)[C@H](CCCNC(=N)N)NC(=O)[C@@H](Cc2ccc(Br)cc2)NC(=O)[C@H](CCCNC(=N)N)N(C)C(=O)[C@@H](C)NC1=O` [CTX-1248, Arg-cyclo(Cys-D-Ala-NMe-Arg-D-Phe(4-Br)-Arg-D-Trp-Cys)] (Ac-RC[dA][NMeR][dPhe(4-Br)]R[dW]C-NH2; disulfide 2-8 (inferred)), at human MC4R, the “MC4R selectivity vs MC1R” value is 1.31 and the “MC4R selectivity vs MC3R” value is 1.36. Besides, on human MC4R (hMC4R stable cell line), the Emax worked out at 47% and the EC50 was found to be 2 nM. In addition, on human MC3R (hMC3R stable cell line), the Emax turned out to be 18% and the EC50 worked out at 2.8 nM.
